In brackets after ≈: the same amount, converted by molar mass.
Tests used:
[1] = molecular target: Sigma intracellular receptor 2 (Rattus norvegicus, UniProt Q5U3Y7); assay: Displacement of [3H]DTG from sigma 2 receptor in Sprague-Dawley rat liver membranes measured after 120 mins by liquid scintillation counting method; format: cell membranes, Membrane
[2] = test system: Rattus norvegicus; assay: Anti-ulcerative activity in aspirin induced Sprague-Dawley rat ulcer model assessed as inhibition of ulcer index at 20 mg/kg,po; format: functional
[3] = test system: Rattus norvegicus; assay: Antisecretory activity in Sprague-Dawley rat assessed as inhibition of gastric acid accumulation at 20 mg/kg,ID; format: functional
[4] = test system: L5178Y; assay: Cytotoxicity against […] assessed as inhibition of cell viability at 10 ug/ml; format: functional; details: Mus musculus
[5] = test system: NCI-H460; assay: Antiproliferative activity against human NCI-H460 assessed as cell growth inhibition at 100 uM by SRB assay based spectrophotometric analysis; format: functional
[6] = molecular target: DNA topoisomerase 2 (Drosophila melanogaster, UniProt P15348); assay: Inhibition of Drosophila topoisomerase II assessed as relaxation of supercoiled plasmid pBR322 DNA incubated for 30 mins by ethidium bromide staining based agarose gel electrophoresis
Sequence of DNA topoisomerase 2 (P15348 whole entry): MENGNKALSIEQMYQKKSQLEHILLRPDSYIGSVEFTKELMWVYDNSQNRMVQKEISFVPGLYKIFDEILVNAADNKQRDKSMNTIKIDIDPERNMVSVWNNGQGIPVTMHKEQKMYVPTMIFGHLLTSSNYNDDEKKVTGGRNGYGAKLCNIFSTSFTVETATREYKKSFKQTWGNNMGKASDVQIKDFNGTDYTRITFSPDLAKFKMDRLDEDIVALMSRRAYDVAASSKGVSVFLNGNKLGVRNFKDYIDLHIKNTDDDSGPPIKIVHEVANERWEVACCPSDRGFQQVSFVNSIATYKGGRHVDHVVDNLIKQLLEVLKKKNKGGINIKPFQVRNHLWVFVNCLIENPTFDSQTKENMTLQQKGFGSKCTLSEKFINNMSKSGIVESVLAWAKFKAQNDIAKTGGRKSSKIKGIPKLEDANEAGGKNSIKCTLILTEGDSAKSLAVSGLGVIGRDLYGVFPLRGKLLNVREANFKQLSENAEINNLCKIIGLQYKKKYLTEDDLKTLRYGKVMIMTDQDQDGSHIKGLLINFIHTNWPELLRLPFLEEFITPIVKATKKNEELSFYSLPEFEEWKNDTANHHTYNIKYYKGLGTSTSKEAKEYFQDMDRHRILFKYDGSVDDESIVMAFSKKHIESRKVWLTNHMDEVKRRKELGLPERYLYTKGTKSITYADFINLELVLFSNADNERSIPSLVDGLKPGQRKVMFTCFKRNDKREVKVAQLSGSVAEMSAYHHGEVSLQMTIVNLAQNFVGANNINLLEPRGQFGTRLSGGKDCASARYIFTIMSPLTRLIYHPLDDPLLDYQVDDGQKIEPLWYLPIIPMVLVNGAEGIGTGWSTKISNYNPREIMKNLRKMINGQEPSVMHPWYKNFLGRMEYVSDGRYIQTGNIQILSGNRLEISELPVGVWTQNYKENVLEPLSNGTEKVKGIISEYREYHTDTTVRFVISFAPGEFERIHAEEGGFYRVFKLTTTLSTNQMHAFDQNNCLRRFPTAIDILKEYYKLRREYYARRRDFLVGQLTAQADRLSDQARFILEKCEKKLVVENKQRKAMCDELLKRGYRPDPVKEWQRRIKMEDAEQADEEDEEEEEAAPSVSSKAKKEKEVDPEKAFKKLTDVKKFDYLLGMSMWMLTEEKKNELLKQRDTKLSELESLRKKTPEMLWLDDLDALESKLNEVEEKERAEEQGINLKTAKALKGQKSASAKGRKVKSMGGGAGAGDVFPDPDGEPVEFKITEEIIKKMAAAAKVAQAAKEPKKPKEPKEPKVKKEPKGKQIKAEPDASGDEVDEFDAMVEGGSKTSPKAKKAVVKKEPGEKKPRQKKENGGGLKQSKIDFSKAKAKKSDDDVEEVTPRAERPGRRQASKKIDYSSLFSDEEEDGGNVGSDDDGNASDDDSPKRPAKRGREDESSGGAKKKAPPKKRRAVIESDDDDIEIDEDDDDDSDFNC

[7] = molecular target: T1, DNA gyrase (Escherichia coli, UniProt P0AES4+P0AES6); assay: Inhibition of Escherichia coli DNA gyrase supercoiling activity using pBR322 DNA as substrate incubated for 2 hrs by ethidium bromide/bromophenol blue staining based agarose gel electrophoresis analysis; format: protein-complex assay
[8] = molecular target: T1, DNA gyrase; assay: Inhibition of Escherichia coli DNA gyrase assessed as inhibition of relaxation of supercoiled plasmid pBR322 DNA incubated for 2 hrs by ethidium bromide/bromophenol blue staining based agarose gel electrophoresis analysis; format: protein-complex assay
[9] = test system: Oocyte; assay: Antagonist activity at human dopamine D4 receptor polymorphic variant 7 expressed in Xenopus laevis oocytes at 1 uM incubated for 2 mins; format: cell-based
[10] = test system: Oocyte; assay: Antagonist activity at human dopamine D4 receptor polymorphic variant 4 expressed in Xenopus laevis oocytes at 1 uM incubated for 2 mins; format: cell-based; details: filed as antagonist
[11] = test system: Oocyte; assay: Antagonist activity at human dopamine D4 receptor polymorphic variant 2 expressed in Xenopus laevis oocytes at 1 uM incubated for 2 mins; format: cell-based; details: filed as antagonist
[12] = molecular target: Glutamate NMDA receptor (Rattus norvegicus) (UniProt P35439+Q00959+Q00960+Q00961+Q62645+Q8VHN2+Q9R1M7); assay: Displacement of 3H-(+)-MK 801 from NMDA receptor in rat brain incubated for 80 mins by liquid scintillation counting method; format: tissue-based; details: filed as antagonist
[13] = species: Mus musculus; assay: Analgesic activity in acetic acid induced mouse assessed as assessed as reduction in acetic acid induced writhing […]; format: functional, organism-based
[14] = test system: KB; assay: Antiproliferative activity against human KB cells assessed as cell growth inhibition incubated for 48 hrs by coulter counter method; format: functional; details: read-out: ID50 (the source's name)
[15] = species: Rattus norvegicus; assay: Antiallergic activity in Wistar rat abdominal cavity assessed as inhibition of C48/80-induced histamine release at 0.0005 M incubated for 30 mins by OPT-fluorophore based spectrofluorometric analysis; format: functional; details: 0.5 h
[16] = test system: Mus musculus; assay: Analgesic activity in po dosed phenylquinone induced mouse assessed as assessed as reduction in phenylquinone induced writhing; format: functional
[17] = test system: Lasiodiplodia theobromae; assay: Antifungal activity against Lasiodiplodia theobromae assessed as fungal growth inhibition at 100 ug/ml incubated for 4 days by disk method; format: functional; details: 96 h, time 4 day
[18] = molecular target: 5-hydroxytryptamine receptor 1B (Homo sapiens, UniProt P28222); assay: Displacement of [3H]serotonin from recombinant human 5-HT1B receptor expressed in HEK293 cells incubated for 1 hr by competitive radioligand binding assay based; format: cell-based
Sequence of 5-hydroxytryptamine receptor 1B (P28222 whole entry): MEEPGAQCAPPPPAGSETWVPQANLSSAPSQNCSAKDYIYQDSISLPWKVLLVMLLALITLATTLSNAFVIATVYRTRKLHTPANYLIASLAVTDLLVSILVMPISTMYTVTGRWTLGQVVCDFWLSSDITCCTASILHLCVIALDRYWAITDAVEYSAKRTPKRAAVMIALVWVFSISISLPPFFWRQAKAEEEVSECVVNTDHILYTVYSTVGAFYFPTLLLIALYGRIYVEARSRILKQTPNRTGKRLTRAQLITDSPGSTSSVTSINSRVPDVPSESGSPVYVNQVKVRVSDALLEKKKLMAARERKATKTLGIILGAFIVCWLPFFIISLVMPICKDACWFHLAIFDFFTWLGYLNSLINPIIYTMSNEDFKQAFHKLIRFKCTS

[19] = molecular target: D(4) dopamine receptor (Homo sapiens, UniProt P21917); assay: Displacement of spiperone from human dopamine D4 receptor expressed in CHO cell membrane incubated for 1 hr by competitive radioligand binding assay based; format: cell membranes
Sequence of D(4) dopamine receptor (P21917 whole entry): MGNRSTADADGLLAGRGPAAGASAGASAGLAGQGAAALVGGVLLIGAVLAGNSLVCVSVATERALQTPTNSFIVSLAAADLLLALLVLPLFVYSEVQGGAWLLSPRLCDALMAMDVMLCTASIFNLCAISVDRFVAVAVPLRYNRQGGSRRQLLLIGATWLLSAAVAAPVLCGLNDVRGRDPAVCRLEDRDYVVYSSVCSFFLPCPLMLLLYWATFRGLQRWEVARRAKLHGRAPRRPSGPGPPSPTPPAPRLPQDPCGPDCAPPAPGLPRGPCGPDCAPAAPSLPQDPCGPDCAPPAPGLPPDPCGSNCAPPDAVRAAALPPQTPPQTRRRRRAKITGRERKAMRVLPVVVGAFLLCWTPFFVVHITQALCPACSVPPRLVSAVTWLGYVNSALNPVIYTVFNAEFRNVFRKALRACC

[20] = molecular target: Beta-1 adrenergic receptor (Rattus norvegicus) (UniProt P18090); assay: Antagonist activity against beta1 adrenoceptor in Sprague-Dawley rat incubated for 5 mins; details: filed as antagonist
Sequence of Beta-1 adrenergic receptor (Rattus norvegicus) (P18090 whole entry, looked up): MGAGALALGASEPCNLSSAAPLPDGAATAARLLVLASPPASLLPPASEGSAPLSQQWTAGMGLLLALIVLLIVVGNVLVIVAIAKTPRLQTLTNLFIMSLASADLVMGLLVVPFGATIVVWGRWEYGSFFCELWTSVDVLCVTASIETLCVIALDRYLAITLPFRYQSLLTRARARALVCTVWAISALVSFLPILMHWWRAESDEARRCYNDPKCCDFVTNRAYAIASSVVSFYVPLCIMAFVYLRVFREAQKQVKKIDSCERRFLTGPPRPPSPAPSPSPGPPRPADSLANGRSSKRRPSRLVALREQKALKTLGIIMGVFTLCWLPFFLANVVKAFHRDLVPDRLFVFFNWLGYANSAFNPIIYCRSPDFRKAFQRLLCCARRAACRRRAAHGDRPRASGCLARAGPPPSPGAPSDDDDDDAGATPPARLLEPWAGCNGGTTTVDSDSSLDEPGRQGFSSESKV

[21] = molecular target: Sigma non-opioid intracellular receptor 1 (Cavia porcellus, UniProt Q60492); assay: Displacement of [3H](+)-pentazocine from sigma 1 receptor in guinea pig brain membranes measured after 150 mins by liquid scintillation counting method; format: cell membranes, Membrane
Sequence of Sigma non-opioid intracellular receptor 1 (Q60492 whole entry): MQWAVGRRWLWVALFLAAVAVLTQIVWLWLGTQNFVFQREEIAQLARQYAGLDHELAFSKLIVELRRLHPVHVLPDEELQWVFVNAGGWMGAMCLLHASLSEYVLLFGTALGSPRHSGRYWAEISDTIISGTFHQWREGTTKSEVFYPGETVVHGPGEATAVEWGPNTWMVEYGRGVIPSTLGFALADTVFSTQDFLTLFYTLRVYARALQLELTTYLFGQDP

[22] = Selectivity index, ratio of Ki for displacement of [3H]-(+)-pentazocine from sigma1 receptor in guinea pig brain membrane to Ki for displacement of [3H]DTG from sigma 2 receptor in Sprague-Dawley rat liver membranes; format: cell membranes
[23] = test system: Staphylococcus aureus; assay: Antibacterial activity against Staphylococcus aureus ATTC-25923 assessed as bacterial growth inhibition incubated for 24 hrs by disk diffusion assay; format: functional
[24] = test system: Klebsiella pneumoniae; assay: Antibacterial activity against Klebsiella pneumoniae assessed as bacterial growth inhibition incubated for 24 hrs by disk diffusion assay; format: functional
[25] = test system: Escherichia coli; assay: Antibacterial activity against Escherichia coli ATTC-25922 assessed as bacterial growth inhibition incubated for 24 hrs by disk diffusion assay; format: functional
[26] = test system: Pseudomonas aeruginosa; assay: Antibacterial activity against Pseudomonas aeruginosa ATTC-27853 assessed as bacterial growth inhibition incubated for 24 hrs by disk diffusion assay; format: functional
[27] = molecular target: T2, Acetylcholinesterase (Homo sapiens, UniProt P22303); assay: Inhibition of AChE (unknown origin) using acetylthiocholine iodide as substrate incubated for 10 mins by DTNB reagent based Ellman's method
T2 sequence (P22303 whole entry): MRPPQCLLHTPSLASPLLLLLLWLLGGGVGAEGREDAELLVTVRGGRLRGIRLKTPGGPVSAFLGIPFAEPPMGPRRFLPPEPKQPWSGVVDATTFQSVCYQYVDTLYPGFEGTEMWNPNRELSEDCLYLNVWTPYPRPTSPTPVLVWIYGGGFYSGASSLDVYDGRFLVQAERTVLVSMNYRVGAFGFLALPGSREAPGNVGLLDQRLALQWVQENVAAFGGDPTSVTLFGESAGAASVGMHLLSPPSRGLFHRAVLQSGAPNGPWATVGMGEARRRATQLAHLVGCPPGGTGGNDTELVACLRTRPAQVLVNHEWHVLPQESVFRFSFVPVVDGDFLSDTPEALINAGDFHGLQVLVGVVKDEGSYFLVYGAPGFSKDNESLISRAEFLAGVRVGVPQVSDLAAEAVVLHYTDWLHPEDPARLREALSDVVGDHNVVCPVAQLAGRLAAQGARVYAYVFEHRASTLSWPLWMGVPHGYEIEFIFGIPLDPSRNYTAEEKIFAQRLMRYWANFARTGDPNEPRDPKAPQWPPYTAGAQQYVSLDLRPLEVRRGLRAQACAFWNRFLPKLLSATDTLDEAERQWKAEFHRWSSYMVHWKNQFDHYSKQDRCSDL

[28] = species: Homo sapiens; assay: Selectivity index, ratio of IC50 for […] (unknown origin)
[29] = molecular target: T2, Acetylcholinesterase; assay: Inhibition of AChE in human erythrocytes using acetylthiocholine iodide as substrate at 50 uM incubated for 20 mins by DTNB reagent based Ellman's method; format: cell-based; details: Erythrocyte
[30] = Antioxidant activity assessed as Ferric ion reducing activity by FRAP assay based HPLC analysis; format: functional
[31] = Antioxidant activity assessed as DPPH radical scavenging activity by HPLC analysis; format: functional
[32] = Antioxidant activity assessed as hydroxy radical scavenging activity by HPLC analysis; format: functional
[33] = test system: HL-60; assay: Cytotoxicity against human HL-60 cells; format: functional, cell-based
[34] = molecular target: D(1A) dopamine receptor (Sus scrofa, UniProt P50130); assay: Displacement of [3H]SCH-23390 from porcine striatum dopamine D1 receptor incubated for 30 mins by radioligand competition binding assay based scintillation counter analysis; format: tissue-based
Sequence of D(1A) dopamine receptor (P50130 whole entry): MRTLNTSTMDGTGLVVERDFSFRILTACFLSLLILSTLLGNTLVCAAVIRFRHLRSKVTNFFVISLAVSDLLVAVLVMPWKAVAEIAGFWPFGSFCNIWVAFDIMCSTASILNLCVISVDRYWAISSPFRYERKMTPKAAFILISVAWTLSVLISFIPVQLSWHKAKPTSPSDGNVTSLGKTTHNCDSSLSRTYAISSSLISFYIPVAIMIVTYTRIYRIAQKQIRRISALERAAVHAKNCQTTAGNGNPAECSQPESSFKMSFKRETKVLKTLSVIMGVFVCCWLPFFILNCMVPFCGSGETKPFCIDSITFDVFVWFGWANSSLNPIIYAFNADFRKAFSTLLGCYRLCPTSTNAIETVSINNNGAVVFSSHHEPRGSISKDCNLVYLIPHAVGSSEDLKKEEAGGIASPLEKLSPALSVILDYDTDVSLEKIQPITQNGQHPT

[35] = Displacement of [3H]SCH-23390 from porcine striatum dopamine D2 receptor incubated for 30 mins by radioligand competition binding assay based scintillation counter analysis; format: tissue-based, Sus scrofa
[36] = test system: Aspergillus fumigatus; assay: Antifungal activity against Aspergillus fumigatus assessed as fungal growth inhibition incubated for 1 hrs by disk diffusion assay; format: functional
[37] = test system: Aspergillus flavus; assay: Antifungal activity against Aspergillus flavus assessed as fungal growth inhibition incubated for 1 hrs by disk diffusion assay; format: functional
[38] = test system: Talaromyces marneffei; assay: Antifungal activity against Penicillium marneffei assessed as fungal growth inhibition incubated for 1 hrs by disk diffusion assay; format: functional
[39] = test system: Trichophyton mentagrophytes; assay: Antifungal activity against Trichophyton mentagrophytes assessed as fungal growth inhibition incubated for 1 hrs by disk diffusion assay; format: functional

Sequence of Sigma intracellular receptor 2 (Q5U3Y7 whole entry): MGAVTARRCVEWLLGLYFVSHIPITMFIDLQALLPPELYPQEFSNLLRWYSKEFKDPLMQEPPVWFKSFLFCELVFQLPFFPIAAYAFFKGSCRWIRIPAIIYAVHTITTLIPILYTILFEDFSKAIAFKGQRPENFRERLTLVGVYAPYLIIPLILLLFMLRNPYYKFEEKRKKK

N#CC1Cc2ccccc2C2(CCN(Cc3ccccc3)CC2)O1 (stereo unspecified)
Ki [1]: 1.59 µM

CC(CC1CCCc2ccccc21)NCC(C)c1ccccc1 (stereo unspecified)
inhibition in vivo at 20 mg/kg [2]: 3.2%
inhibition in vivo at 20 mg/kg [3]: 71.3%

COc1cc(O)c(C)c2c1[C@H](O)O[C@@H](C)C2
inhibition at 10 µg/mL [4]: 40.4%

C[C@H]1Cc2cc3c(cc2[C@H](c2ccc(N)cc2)O1)OCO3
inhibition at 100 µM [5]: 67%

CC12Cc3cc4c(cc3C(c3ccc(N)cc3)(OCO1)O2)OCO4 (stereo unspecified)
inhibition at 100 µM [5]: 86%

CN/C(=N\CCSCc1nc[nH]c1C)NC#N [CIMETIDINE]
inhibition in vivo at 20 mg/kg [3]: 51.6%

CCCCCCC[C@H]1Cc2cc(O)c(C(=O)O)c(O)c2[C@@H](O)O1
IC50 [6]: 3.08 µM
IC50 [7]: 18.5 µM
IC50 [8]: 27.7 µM

COc1ccc(N2CCN(CC[C@@H]3O[C@@H](C)Cc4cc(OC)c(OC)cc43)CC2)cc1
inhibition [9]: 33%
inhibition [10]: 46%
inhibition [11]: 66%

COc1cc2c(cc1OC)C1CNCC(C2)O1 (stereo unspecified)
Activity [12]: 93%

COC(=O)[C@]1(C)Cc2cc(OC)c(OC)cc2C2(CCN(C)CC2)O1.Cl
EC50 [13]: 44 mg/kg

Clc1ccc2oc(SCC3OCCc4ccccc43)nc2c1 (stereo unspecified)
IC50 [14]: 6.1 µg/mL (≈ 18.4 µM)

c1ccc(CCN2CCC3(CC2)COCc2ccccc23)cc1
inhibition in vivo at 500 µM [15]: 96%
ED50 [16]: 54 mg/kg

CCOC1OC(C)Cc2c(C)c(O)cc(OC)c21 (stereo unspecified)
inhibition at 100 µg/mL [17]: 74%

COc1cc(O)c(C)c2c1CO[C@@H](C)[C@@H]2O
inhibition at 10 µg/mL [4]: 26.2%

CNC(=O)c1ccc2c(c1)CCO[C@H]2CCN1CCN(c2ccc(OC)cc2)CC1
Ki [18]: 5.78 µM
Ki [19]: 3.7 µM

COc1cc(O)c(C)c2c1C(=O)O[C@@H](C)C2
inhibition at 10 µg/mL [4]: 59.5%

CCCNCC(O)CC/N=C1\COCc2c1ccc(OC)c2OC (stereo unspecified)
inhibition [20]: 62.9%

O=C1OCC2(CCN(CCc3ccccc3)CC2)c2ccccc21
inhibition in vivo at 500 µM [15]: 94%
ED50 [16]: 60 mg/kg

COC1Cc2ccccc2C2(CCN(CCc3ccccc3)CC2)O1 (stereo unspecified)
Ki [21]: 0.00207 µM
Ratio Ki [22]: 148

COc1cc(O)c(C)c2c1CO[C@@H](C)C2
inhibition at 10 µg/mL [4]: 3.4%

CC(C)NC(C)CC1OCCc2ccccc21 (stereo unspecified)
inhibition in vivo at 20 mg/kg [3]: 61%

COC1=CC(=O)C(C)=C2C[C@H](C)OC=C12
inhibition at 100 µg/mL [17]: 69%

COC(=O)Cc1cc2c(cc1C(=O)c1ccc(N)cc1)OCO2
inhibition at 100 µM [5]: 4%

CC(CC1OCCc2ccccc21)NCCc1ccccc1 (stereo unspecified)
inhibition in vivo at 20 mg/kg [3]: 71.3%

COc1cc2c(c(OC)c1OC)C(C)(c1n[nH]c(=S)n1-c1ccc(C)cc1)OCC2 (stereo unspecified)
MIC [23]: 6.25 µg/mL (≈ 14.6 µM)
MIC [24]: 6.25 µg/mL (≈ 14.6 µM)
MIC [25]: 6.25 µg/mL (≈ 14.6 µM)
MIC [26]: 6.25 µg/mL (≈ 14.6 µM)

COc1cc(O)cc2c1CO[C@@H](C)C2
inhibition at 10 µg/mL [4]: 16.1%

COc1cc2c(cc1OC)C(=O)/C(=C/c1cc[n+](Cc3ccc(F)cc3)cc1)OC2
IC50 [27]: 0.00015 µM
Ratio IC50 [28]: > 5000

COC1(C)Cc2c(C=O)c(O)c(Cc3c(O)c(C=O)c4c(c3O)COC(C)(OC)C4)c(O)c2CO1 (stereo unspecified)
inhibition [29]: 53%

O=C1OCC2(CCN(Cc3ccccc3)CC2)c2ccccc21
inhibition in vivo at 500 µM [15]: 31%
ED50 [16]: 100 mg/kg

CN1CCC2(CC1)COCc1ccccc12
ED50 [16]: 12 mg/kg

CC1=Cc2c(C=O)c(O)c(C)c(O)c2CO1
inhibition [29]: -2%

COc1cc(O)c(C)c2c1[C@@H](OC)O[C@@H](C)C2
inhibition at 100 µg/mL [17]: 76%

Oc1ccc2c(c1)OCC21Cc2cc(O)c(O)cc2C(O)O1 (stereo unspecified)
IC50 [30]: 78.2 µM
IC50 [31]: 33.3 µM
IC50 [32]: 33.3 µM

Cc1c(O)cc(O)c2c1[C@H](C)[C@@H](C)O[C@@H]2c1ccc(O)cc1
IC50 [33]: 22.7 µg/mL (≈ 75.6 µM)

COC1(C)Cc2c(C=O)c(O)c(C)c(O)c2CO1 (stereo unspecified)
inhibition [29]: -1%

NC[C@@H]1O[C@H](C23CC4CC(CC(C4)C2)C3)Cc2c1ccc(O)c2O
Ki [34]: 0.0039 µM
Ki [35]: 1.86 µM

CC1=Cc2c(C=O)c(O)c(Cc3c(O)c(C=O)c4c(c3O)COC(C)=C4)c(O)c2CO1
inhibition [29]: 46%

COc1cccc(Nc2nnc(C3(C)OCCc4cc(OC)c(OC)c(OC)c43)s2)c1 (stereo unspecified)
MIC [36]: 6.25 µg/mL (≈ 14.1 µM)
MIC [37]: 6.25 µg/mL (≈ 14.1 µM)
MIC [38]: 6.25 µg/mL (≈ 14.1 µM)
MIC [23]: 6.25 µg/mL (≈ 14.1 µM)
MIC [24]: 6.25 µg/mL (≈ 14.1 µM)
MIC [39]: 6.25 µg/mL (≈ 14.1 µM)
MIC [25]: 6.25 µg/mL (≈ 14.1 µM)
MIC [26]: 6.25 µg/mL (≈ 14.1 µM)

COc1cc2c(cc1OC)C1CN(C)CC(C2)O1 (stereo unspecified)
Activity [12]: 95%
EC50 [13]: 77 mg/kg

COC1(C)Cc2c(C=O)c(O)c(Cc3c(O)c(C=O)c4c(c3O)COC(C)=C4)c(O)c2CO1 (stereo unspecified)
inhibition [29]: 55%

COc1cc(O)cc2c1C(=O)O[C@@H](C)C2
inhibition at 10 µg/mL [4]: 13.7%

Reference: ChEMBL document CHEMBL5113374, “Research progress in biological activities of isochroman derivatives” (Eur J Med Chem, 2021)
